Eight compounds from ChEMBL document CHEMBL3272046, “Adrenerigic agents. 7.1 Synthesis and beta-adrenergic agonist activity of several 2-pyridylethanolamines” (J Med Chem, 1977) can be followed below.

Format in all cases: tissue-based
For assay [1], the species on record is Cavia porcellus. The assay is described as follows: Agonist activity at beta-adrenergic receptor in guinea pig tracheal tissue assessed as bronchodilator activity. Conditions: Trachea.
The species entered for assay [2] is Cavia porcellus. The assay is described as follows: Agonist activity at beta-adrenergic receptor in guinea pig right atrial muscle assessed as rate of contraction of spontaneously beating atria. The note with it: Cardiac atrium.
Assay [3] is filed under the species Cavia porcellus. Put plainly: Selectivity ratio of ED25 for beta-adrenergic receptor in guinea pig right atrial muscle to ED50 for beta-adrenergic receptor in guinea pig tracheal tissue. Conditions: Cardiac atrium.
The species entered for assay [4] is Cavia porcellus. The assay is described as follows: Intrinsic activity at beta-adrenergic receptor in guinea pig right atrial muscle assessed as rate of contraction of spontaneously beating atria relative to isoproterenol. Conditions: Cardiac atrium.
The species named for assay [5] is Cavia porcellus. Put plainly: Agonist activity at beta-adrenergic receptor in guinea pig right atrial muscle assessed as rate of contraction of spontaneously beating atria at 1.7 x 10^-5 M. Conditions: Cardiac atrium.
The species entered for assay [6] is Cavia porcellus. The assay is described as follows: Agonist activity at beta-adrenergic receptor in guinea pig right atrial muscle assessed as rate of contraction of spontaneously beating atria at 9.9 x 10^-5 M. Conditions: Cardiac atrium.

Take `CC(C)NCC(O)c1ccc(O)c(O)c1` (stereo not given): in the assay filed under Cavia porcellus [1], the ED50 came out at 7.1 ×10⁻⁹ M. Moreover, in the assay listed under Cavia porcellus [2], the ED25 was 3.4 ×10⁻⁹ M.

In the case of `CC(C)NCC(O)c1ccc(O)cc1` (stereo not given), the ED50 in the assay filed under Cavia porcellus [1] is 1.1 ×10⁻⁷ M. Moreover, in the assay listed under Cavia porcellus [3], the Selectivity ratio was determined as 0.7. The Intrinsic activity in the assay listed under Cavia porcellus [4] came to 0.8. The ED25 in the assay listed under Cavia porcellus [2] turned out to be 7.7 ×10⁻⁸ M.

For the compound `CC(C)(C)NCC(O)c1ccc(O)c(CO)c1` (stereo not given), the ED50 in the assay listed under Cavia porcellus [1] stood at 1.1 ×10⁻⁸ M. The Selectivity ratio in the assay filed under Cavia porcellus [3] was 28. For the same compound, in the assay listed under Cavia porcellus [4], the Intrinsic activity is 0.7. In the assay filed under Cavia porcellus [2], the ED25 is 3.1 ×10⁻⁷ M.

For `Cc1nc(C(O)CNC(C)(C)C)ccc1O` (stereo not given), in the assay listed under Cavia porcellus [1], the ED50 was found to be 2.8 ×10⁻⁷ M. In addition, in the assay filed under Cavia porcellus [3], the Selectivity ratio is 36. The Intrinsic activity in the assay listed under Cavia porcellus [4] came out at 0.4. Further, the ED25 in the assay listed under Cavia porcellus [2] came out at 1 ×10⁻⁵ M.

With `CC(C)(C)NCC(O)c1ccc(O)cn1` (stereo not given), in the assay listed under Cavia porcellus [5], the Activity was 7%. For the same compound, the ED50 in the assay filed under Cavia porcellus [1] came out at 3.1 ×10⁻⁷ M. For the same compound, the Selectivity ratio in the assay filed under Cavia porcellus [3] is over 182. Also, in the assay filed under Cavia porcellus [2], the ED25 came out at 1.7 ×10⁻⁵ M.

As for `CC(C)(C)NCC(O)c1ccc(O)c(CS(C)(=O)=O)n1` (stereo not given), the Activity in the assay listed under Cavia porcellus [6] came out at 13%. Besides, the ED50 in the assay listed under Cavia porcellus [1] worked out at 2.9 ×10⁻⁸ M. The Selectivity ratio in the assay filed under Cavia porcellus [3] was over 3410. The ED25 in the assay filed under Cavia porcellus [2] came out at 9.9 ×10⁻⁵ M.

For the compound `CC(C)(C)NCC(O)c1ccc(O)c(CO)n1` (stereo not given), the ED50 in the assay listed under Cavia porcellus [1] is 2.8 ×10⁻⁹ M. For the same compound, the Selectivity ratio in the assay filed under Cavia porcellus [3] was 43. In addition, the Intrinsic activity in the assay filed under Cavia porcellus [4] is 0.8. For the same compound, the ED25 in the assay filed under Cavia porcellus [2] worked out at 1.2 ×10⁻⁷ M.

Regarding `CC(C)(C)NCC(O)c1ccc(O)c(CS(C)(=O)=O)c1` (stereo not given), in the assay listed under Cavia porcellus [1], the ED50 is 1.7 ×10⁻⁸ M. Further, the Selectivity ratio in the assay listed under Cavia porcellus [3] was determined as 1650. Besides, in the assay filed under Cavia porcellus [4], the Intrinsic activity is 0.3. Further, the ED25 in the assay filed under Cavia porcellus [2] amounted to 2.8 ×10⁻⁵ M.
